{"source": "patent US20240287005A1", "about": "“ISOXAZOLINE PESTICIDES” (Elanco Tiergesundheit AG, priority 2021, published 2024)", "system": "Ctenocephalides felis", "assay": "In vitro evaluation of contact activity against adult cat fleas", "details": "adult fleas in coated glass vial, after 48 h", "experimental": "In vitro contact tests with […] are conducted with adult males and females of Ctenocephalides felis. For the coating of the test vials, the test substance is dissolved and diluted in acetone p.a. to the desired concentration. The solution is then homogeneously applied to the inner walls and base of a glass vial by turning and rocking on an orbital shaker until complete evaporation of the solvent. For example, with 900 ppm solution of test substance an area-based dose of 5 μg/cm^2 is achieved.\nAfter the solvent is completely evaporated, approximately 10 adult fleas are applied to each coated test vial, which is then sealed with a perforated plastic lid and incubated in a horizontal position in the dark at room temperature and ambient humidity. Insecticidal activity is determined after 48 h. Fleas which remain motionless on the base of the test vial or move uncoordinated without occasionally jumping or walking straight are considered dead or moribund, respectively. An insecticidal activity of 100% means all fleas were dead or moribund. An insecticidal activity of 0% means none of the fleas was affected. From a dose response curve the respective EC50 was calculated (4-parameter logistic curve fitting)."}
{"smiles": "Cc1cc(C2=NOC(c3cc(C(F)(F)F)cc(C(F)(F)F)c3F)(C(F)(F)F)C2)ccc1C(=O)NCC(=O)NCC(F)(F)F", "note": "(single isomer, unassigned) [Example 3.1]", "values": [{"measurement": "EC50 insecticidal activity (fleas dead or moribund)", "result": "< 0.05", "unit": "μg/cm^2"}]}
